Test system: MelaKuits® living skin equivalent models
Experiment: skin brightening efficacy in UVB-irradiated living skin equivalent models, lightness (L*) by DSM II Color Meter
Type: cell-based
Procedure: The skin brightening efficacy were evaluated by using MelaKuits® living skin equivalent models (Biocell, Xi'an, China). A series of identical living skin equivalent models were constructed by following manufacturer's instruction. After the models were constructed, the models were irradiated by UVB with an energy density of 50 mJ/cm^2, followed by culturing in fresh medium with or without actives for one day. Such irradiating and culturing process were repeated by using refreshed same medium for seven times. The lightness (L*) of each model were measured by using a DSM II Color Meter. The measurements of lightness were repeated at least three times. Similar experiments were conducted as that in Example 1 except that niacinamide was used and different batch of live equivalent models were used. The original lightness of the live equivalent models was different from that in Example 1.

Q: With `CCCCCCC(O)CCCCCCCCCCC(=O)O` (stereo not drawn) [12-HSA, 12-hydroxystearic acid] as the compound, how does the “Average lightness (L*)” value (Example 1 batch, UVB 50 mJ/cm^2, irradiating and culturing repeated seven times, 10 μM of 12-HSA in medium (UVB + medium only 32.4; blank control 43.4)) read?
A: Its value is 35.2.

Q: For `NC(=O)c1cccnc1` [niacinamide, reference compound], which “Average lightness (L*)” value (Example 2, different batch of models, UVB, 3 wt % of niacinamide in medium (UVB + medium only 66.86; blank control 71.43)) is on record?
A: Its value is 71.15.

Q: With Lysine carboxymethyl cysteinate [LCC] as the compound, how does the “improvement of the skin brightening efficacy of niacinamide (in words)” value (LCC 0.27 wt % added to 3 wt % niacinamide, Table 2) read?
A: The value was “not capable of improving the skin brightening efficacy of niacinamide”.
